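Grown in 96-well plates, cells were treated for 48 hours with each compound at five concentrations. Insufficient inhibition: endpoint recorded as highest concentration tested. At the TGI there is no net growth.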
Assays:
Assay in all cases: inhibition of tumour cell growth, NCI panel, 48 h
[1] = tested on: HCT-116 colon
[2] = tested on: HS 578T breast
[3] = tested on: IGROV1 ovarian
[4] = tested on: K-562 leukemia
[5] = tested on: MOLT-4 leukemia
[6] = tested on: NCI-H226 lung
[7] = tested on: NCI-H460 lung
[8] = tested on: OVCAR-3 ovarian
[9] = tested on: OVCAR-4 ovarian
[10] = tested on: OVCAR-5 ovarian
[11] = tested on: OVCAR-8 ovarian
[12] = tested on: RXF 393 renal
[13] = tested on: SF-295 CNS
[14] = tested on: SK-MEL-28 melanoma
[15] = tested on: SK-MEL-5 melanoma
[16] = tested on: T-47D breast
[17] = tested on: U251 CNS
[18] = tested on: UACC-257 melanoma
[19] = tested on: UO-31 renal
[20] = tested on: SNB-19 CNS

Molecule `CC1(C)C2CCC1(C)[C@H](n1c(=O)n([C@@H]3CC4CCC3(C)C4(C)C)c(=O)n([C@@H]3CC4CCC3(C)C4(C)C)c1=O)C2` has a TGI [1] of over 100 µM, a TGI [2] of over 100 µM and a TGI [3] of over 100 µM. The TGI [4] was over 100 µM, the TGI [5] was over 100 µM and the TGI [6] was 76.4 µM. For the same molecule, the TGI [7] was over 100 µM, the TGI [8] was over 100 µM and the TGI [9] was over 100 µM. It also gave a TGI [10] of over 100 µM, a TGI [11] of over 100 µM and a TGI [12] of 55.8 µM. For the same molecule, the TGI [13] was over 100 µM, the TGI [14] was over 100 µM and the TGI [15] was over 100 µM. For the same molecule, the TGI [16] was over 100 µM, the TGI [17] was over 100 µM and the TGI [18] was over 100 µM. For the same molecule, the TGI [19] was over 100 µM.
Molecule `O=c1[nH]c(=O)n(C2OC(CO)C(O)C2O)c2nc(-c3ccc(-c4ccccc4)cc3)cnc12` (centres undefined) has a TGI [1] of over 100 µM, a TGI [2] of over 100 µM and a TGI [3] of over 100 µM. For the same molecule, the TGI [4] was over 100 µM, the TGI [5] was over 100 µM and the TGI [6] was over 100 µM. For the same molecule, the TGI [7] was over 100 µM, the TGI [9] was over 100 µM and the TGI [10] was over 100 µM. The TGI [11] was over 100 µM, the TGI [12] was over 100 µM and the TGI [13] was over 100 µM. The TGI [15] was over 100 µM, the TGI [20] was over 100 µM and the TGI [16] was over 100 µM. For the same molecule, the TGI [17] was over 100 µM, the TGI [18] was over 100 µM and the TGI [19] was over 100 µM.
With `O=[N+]([O-])C(/C=C(\Cl)n1nnc2ccccc21)=C(/Cl)n1nnc2ccccc21` the TGI [1] was over 100 µM, the TGI [2] was over 100 µM and the TGI [3] was over 100 µM. For the same molecule, the TGI [4] was over 100 µM, the TGI [5] was over 100 µM and the TGI [6] was over 100 µM. For the same molecule, the TGI [7] was over 100 µM, the TGI [8] was over 100 µM and the TGI [9] was over 100 µM. It also gave a TGI [10] of over 100 µM, a TGI [12] of over 100 µM and a TGI [13] of over 100 µM. It also gave a TGI [14] of over 100 µM, a TGI [15] of over 100 µM and a TGI [20] of over 100 µM. The TGI [16] was over 100 µM, the TGI [17] was over 100 µM and the TGI [18] was over 100 µM. The TGI [19] was over 100 µM.
`CN(C)c1ccc(S(=O)Nc2ccccc2)cc1` (centres undefined) showed a TGI [1] of over 100 µM, a TGI [2] of over 100 µM and a TGI [3] of over 100 µM. The TGI [4] was over 100 µM, the TGI [5] was over 100 µM and the TGI [6] was over 100 µM. For the same molecule, the TGI [7] was over 100 µM, the TGI [8] was over 100 µM and the TGI [9] was over 100 µM. For the same molecule, the TGI [10] was over 100 µM, the TGI [11] was over 100 µM and the TGI [13] was over 100 µM. For the same molecule, the TGI [14] was over 100 µM, the TGI [15] was 50.7 µM and the TGI [20] was over 100 µM. It also gave a TGI [16] of 65.6 µM, a TGI [17] of 62.9 µM and a TGI [18] of 92.9 µM. For the same molecule, the TGI [19] was over 100 µM.
`O=C(/C=C/c1ccc2c(c1)OCO2)CC(=O)C(=O)c1c[nH]c2ccccc12` showed a TGI [1] of over 100 µM, a TGI [2] of 68.1 µM and a TGI [3] of over 100 µM. For the same molecule, the TGI [4] was 84.6 µM, the TGI [5] was over 100 µM and the TGI [7] was over 100 µM. It also gave a TGI [8] of over 100 µM, a TGI [10] of over 100 µM and a TGI [11] of over 100 µM. The TGI [12] was 96.6 µM, the TGI [13] was over 100 µM and the TGI [14] was over 100 µM. The TGI [15] was over 100 µM, the TGI [20] was over 100 µM and the TGI [16] was 62.1 µM. The TGI [17] was over 100 µM, the TGI [18] was over 100 µM and the TGI [19] was 64.1 µM.
With `O=C(O)CCC(=O)OC1N=C(c2ccccc2Cl)c2cc([N+](=O)[O-])ccc2NC1=O` (centres undefined) the TGI [1] was 65.6 µM, the TGI [2] was over 100 µM and the TGI [3] was over 100 µM. For the same molecule, the TGI [7] was over 100 µM, the TGI [8] was over 100 µM and the TGI [9] was over 100 µM. The TGI [10] was over 100 µM, the TGI [11] was over 100 µM and the TGI [12] was over 100 µM. For the same molecule, the TGI [13] was over 100 µM, the TGI [14] was over 100 µM and the TGI [20] was over 100 µM. It also gave a TGI [16] of over 100 µM, a TGI [17] of over 100 µM and a TGI [18] of over 100 µM. For the same molecule, the TGI [19] was over 100 µM.

Source: PubChem BioAssay (NCI)
